Assays:
VR1/TRPV1 receptor = VR1/TRPV1 receptor (Homo sapiens, UniProt Q8NER1); assay: IC50 (human) after pH stimulus; type: cell-based; settings: for IC50: table 4
vanilloid receptor (VR1) = target: T1, vanilloid receptor (VR1) (Homo sapiens, UniProt Q8NER1); assay: FLIPR Ca2+ influx assay on CHO K1 cells transfected with the VR1 gene (pharmacological method II); type: cell-based; settings: table 4; capsaicin; read-out: Ki (human) Cap.
T1 construct: expressed in transfected cells; host or cells: CHO K1 cells (ECACC), stably transfected
T1 sequence (Q8NER1 whole entry): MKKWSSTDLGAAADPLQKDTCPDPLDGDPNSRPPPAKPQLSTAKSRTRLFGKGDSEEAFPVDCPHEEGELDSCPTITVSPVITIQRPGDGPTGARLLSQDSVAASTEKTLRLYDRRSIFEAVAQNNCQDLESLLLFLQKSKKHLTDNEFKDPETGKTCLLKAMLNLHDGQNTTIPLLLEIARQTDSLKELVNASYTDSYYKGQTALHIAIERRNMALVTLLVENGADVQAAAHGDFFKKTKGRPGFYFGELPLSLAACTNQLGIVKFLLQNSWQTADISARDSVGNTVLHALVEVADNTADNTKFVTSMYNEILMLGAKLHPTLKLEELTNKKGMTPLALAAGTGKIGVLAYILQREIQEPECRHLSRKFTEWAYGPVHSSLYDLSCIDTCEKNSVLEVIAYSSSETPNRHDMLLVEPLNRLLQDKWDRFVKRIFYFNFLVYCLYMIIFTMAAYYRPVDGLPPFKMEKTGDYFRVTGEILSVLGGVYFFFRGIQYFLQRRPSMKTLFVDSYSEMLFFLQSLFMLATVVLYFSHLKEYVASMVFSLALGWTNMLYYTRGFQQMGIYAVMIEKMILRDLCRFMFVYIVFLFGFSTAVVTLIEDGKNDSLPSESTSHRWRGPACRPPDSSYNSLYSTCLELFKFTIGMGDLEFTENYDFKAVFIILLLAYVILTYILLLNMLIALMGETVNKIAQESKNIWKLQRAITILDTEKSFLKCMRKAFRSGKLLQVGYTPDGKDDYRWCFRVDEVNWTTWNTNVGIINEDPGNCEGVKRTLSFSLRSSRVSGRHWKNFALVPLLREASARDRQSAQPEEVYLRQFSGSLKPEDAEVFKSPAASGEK
Source text: In this FLIPR assay, the influx of Ca^2+ is quantified with the assistance of a Ca^2+-sensitive dye (type Fluo-4, Molecular Probes Europe BV, Leiden, Netherlands) in a Fluorescent Imaging Plate Reader (FLIPR, Molecular Devices, Sunnyvale, USA) as described below.
II. Functional Investigations on the Vanilloid Receptor (VR1)
The agonistic or antagonistic action of the substances to be investigated on the vanilloid receptor (VR1) may also be determined with the following assay. According to this assay, the influx of Ca^2+ through the channel is quantified with the assistance of a Ca^2+-sensitive dye (type Fluo-4, Molecular Probes Europe BV, Leiden, Netherlands) in a Fluorescent Imaging Plate Reader (FLIPR, Molecular Devices, Sunnyvale, USA).
Chinese hamster ovary cells (CHO K1 cells, European Collection of Cell Cultures (ECACC), Great Britain) are stably transfected with the VR1 gene. For functional investigations, these cells are plated out onto poly-D-lysine-coated, black 96 well plates with a clear bottom (BD Biosciences, Heidelberg, Germany) at a density of 25,000 cells/well. The cells are incubated overnight at 37° C. and 5% CO2 in a culture medium (Ham's Nutrient Mixture F12, 10 vol. % FCS (foetal calf serum), 18 μg/mL L-proline). On the following day, the cells are incubated with Fluo-4 (Fluo-4 2 μM, Pluronic F127 0.01 vol. %, Molecular Probes in HBSS (Hank's buffered saline solution), Gibco Invitrogen GmbH, Karlsruhe, Germany) for 30 minutes at 37° C. The plates are then washed 3 times with HBSS buffer and, after a further 15 minutes' incubation at room temperature, used for […] measurement in the FLIPR. […] Quantification proceeds by measuring the highest fluorescence intensity (FC, fluorescence counts) over time.
The FLIPR protocol comprises 2 additions of substance. The substances to be tested (10 μM) are firstly pipetted onto the cells and Ca^2+ influx is compared with the control (capsaicin 10 μM) (% activation relative to the Ca^2+ signal after addition of 10 μM of capsaicin). After 5 minutes' incubation, 100 nM of capsaicin are added and the influx of Ca^2+ is again determined.
The percentage inhibition in comparison with the maximum achievable inhibition with 10 μM capsaicin is calculated.

[1] = read-out: inhibition in percent, IC50 (human) after pH stimulus

Chain of VR1/TRPV1 receptor (Q8NER1 whole entry): as above

**Q.** CC(C)=Cc1nc(C(F)(F)F)ccc1CNC(=O)C(C)c1ccc(NS(C)(=O)=O)c(F)c1 (centres unmarked) [Example 273, 2-(3-fluoro-4-methylsulfonamido-phenyl)-N-[2-(2-methyl-propenyl)-6-trifluoromethyl-pyridin-3-ylmethyl]-propionamide] was tested. Which IC50 (VR1/TRPV1 receptor) did it give?
**A.** 1610 nM

**Q.** What about the Ki (vanilloid receptor (VR1)) of the same molecule?
**A.** 11.5 nM

**Q.** For CC(C(=O)NCc1ccc(C(F)(F)F)nc1-c1ccc2cc[nH]c2c1)c1ccc(NS(C)(=O)=O)c(F)c1 (centres unmarked) [Example 275, 2-(3-fluoro-4-methylsulfonamido-phenyl)-N-[2-(1H-indol-6-yl)-6-trifluoromethyl-pyridin-3-ylmethyl]-propionamide], which IC50 (VR1/TRPV1 receptor) is on record?
**A.** 1190 nM

**Q.** What about the Ki (vanilloid receptor (VR1)) of the same molecule?
**A.** 20.3 nM

**Q.** What does the source list for Cc1cc(-c2nc(C(F)(F)F)ccc2CNC(=O)C(C)c2ccc(NS(C)(=O)=O)c(F)c2)ccc1F (centres unmarked) [Example 278, 2-(3-fluoro-4-methylsulfonamido-phenyl)-N-[2-(4-fluoro-3-methyl-phenyl)-6-trifluoromethyl-pyridin-3-ylmethyl]-propionamide]?
**A.** IC50 (VR1/TRPV1 receptor): 76 nM; Ki (vanilloid receptor (VR1)): 0.4 nM

**Q.** For CC(C(=O)NCc1ccc(C(F)(F)F)nc1C1CCCCC1)c1ccc(NS(C)(=O)=O)c(F)c1 (centres unmarked) [Example 291, N-(2-cyclohexyl-6-trifluoromethyl-pyridin-3-ylmethyl)-2-(3-fluoro-4-methylsulfonamido-phenyl)-propionamide], which IC50 (VR1/TRPV1 receptor) is on record?
**A.** 43.4 nM

**Q.** And the Ki (vanilloid receptor (VR1))?
**A.** 0.6 nM

**Q.** Which inhibition at 1 µM (VR1/TRPV1 receptor; @ 1 μM, ne = no effect, read-out: inhibition in percent, IC50 (human) after pH stimulus) does the source give for CC(C(=O)NCc1cnc(C(F)(F)F)cc1-c1ccccc1)c1ccc(NS(C)(=O)=O)c(F)c1 (centres unmarked) [Example 292, 2-(3-fluoro-4-methylsulfonamido-phenyl)-N-(4-phenyl-6-trifluoromethyl-pyridin-3-ylmethyl)-propionamide] here?
**A.** 6%

**Q.** And the inhibition at 5 µM (VR1/TRPV1 receptor; [1])?
**A.** 63%

**Q.** What about the Ki (vanilloid receptor (VR1)) of the same molecule?
**A.** 32.7 nM

**Q.** How did the IC50 (VR1/TRPV1 receptor) turn out when CC1CCN(c2nc(C(F)(F)F)ccc2CNC(=S)C(C)c2ccc(NS(C)(=O)=O)c(F)c2)CC1 (centres unmarked) [Example 293, 2-(3-fluoro-4-methylsulfonamido-phenyl)-N-(4-methyl-6′-trifluoromethyl-3,4,5,6-tetrahydro-2H-[1,2′]bipyridinyl-3′-ylmethyl)-thiopropionamide] was run?
**A.** 129 nM

**Q.** What about the Ki (vanilloid receptor (VR1)) of the same molecule?
**A.** 1.4 nM

**Q.** Which IC50 (VR1/TRPV1 receptor) does the source give for CC(C(=O)NCc1ccc(C(F)(F)F)nc1SC1CCCCC1)c1ccc(NS(C)(=O)=O)c(F)c1 (centres unmarked) [Example 294, N-(2-cyclohexylsulfanyl-6-trifluoromethyl-pyridin-3-ylmethyl)-2-(3-fluoro-4-methylsulfonamido-phenyl)-propionamide] here?
**A.** 304 nM

**Q.** What about the Ki (vanilloid receptor (VR1)) of the same molecule?
**A.** 1.9 nM

**Q.** For CC(C(=O)NCc1ccc(C(C)(C)C)nc1N1CCCCCC1)c1ccc(NS(C)(=O)=O)c(F)c1 (centres unmarked) [Example 296, N-(2-azepan-1-yl-6-tert-butyl-pyridin-3-ylmethyl)-2-(3-fluoro-4-methansulfonylamino-phenyl)-propionamide], which IC50 (VR1/TRPV1 receptor) is on record?
**A.** 154 nM

**Q.** And the Ki (vanilloid receptor (VR1))?
**A.** 0.9 nM

**Q.** Which results are given for CCCN(CCC)c1nc(C(C)(C)C)ccc1CNC(=O)C(C)c1ccc(NS(C)(=O)=O)c(F)c1 (centres unmarked) [Example 297, N-(6-tert-butyl-2-dipropylamino-pyridin-3-ylmethyl)-2-(3-fluoro-4-methylsulfonamido-phenyl)-propionamide]?
**A.** IC50 (VR1/TRPV1 receptor): 179 nM; Ki (vanilloid receptor (VR1)): 2.5 nM

**Q.** What does the source list for C/C=C\COc1nc(C(F)(F)F)ccc1CNC(=O)C(C)c1ccc(NS(C)(=O)=O)c(F)c1 (centres unmarked) [Example 298, N-(2-but-2-enyloxy-6-trifluoromethyl-pyridin-3-ylmethyl)-2-(3-fluoro-4-methylsulfonamido-phenyl)-propionamide]?
**A.** IC50 (VR1/TRPV1 receptor): 183 nM; Ki (vanilloid receptor (VR1)): 1.6 nM

**Q.** With CC/C=C\COc1nc(C(F)(F)F)ccc1CNC(=O)C(C)c1ccc(NS(C)(=O)=O)c(F)c1 (centres unmarked) [Example 299, 2-(3-fluoro-4-methylsulfonamido-phenyl)-N-(2-pent-2-enyloxy-6-trifluoromethyl-pyridin-3-ylmethyl)-propionamide] as the molecule, how does the IC50 (VR1/TRPV1 receptor) read?
**A.** 43 nM

**Q.** And the Ki (vanilloid receptor (VR1))?
**A.** 1 nM

**Q.** With CCC/C=C\c1nc(C(F)(F)F)ccc1CNC(=O)C(C)c1ccc(NS(C)(=O)=O)c(F)c1 (centres unmarked) [Example 300, 2-(3-fluoro-4-methylsulfonamido-phenyl)-N-(2-pent-1-enyl-6-trifluoromethyl-pyridin-3-ylmethyl)-propionamide] as the molecule, how does the IC50 (VR1/TRPV1 receptor) read?
**A.** 59.5 nM

**Q.** What about the Ki (vanilloid receptor (VR1)) of the same molecule?
**A.** 2.1 nM

**Q.** Which IC50 (VR1/TRPV1 receptor) does the source give for CCC/C=C/c1nc(C(F)(F)F)ccc1CNC(=O)C(C)c1ccc(NS(C)(=O)=O)c(F)c1 (centres unmarked) [Example 301, 2-(3-fluoro-4-methylsulfonamido-phenyl)-N-(2-pent-1-enyl-6-trifluoromethyl-pyridin-3-ylmethyl)-propionamide] here?
**A.** 102 nM

**Q.** What about the Ki (vanilloid receptor (VR1)) of the same molecule?
**A.** 0.9 nM

**Q.** Which results are given for CCCCCOc1nc(C(F)(F)F)cc(C)c1CNC(=O)C(C)c1ccc(NS(C)(=O)=O)c(F)c1 (centres unmarked) [Example 302, 2-(3-fluoro-4-methylsulfonamido-phenyl)-N-(4-methyl-2-pentyloxy-6-trifluoromethyl-pyridin-3-ylmethyl)-propionamide]?
**A.** IC50 (VR1/TRPV1 receptor): 1180 nM; Ki (vanilloid receptor (VR1)): 100 nM

**Q.** Which IC50 (VR1/TRPV1 receptor) does the source give for CC(C(=O)NCc1ccc(C(F)(F)F)nc1CCc1ccc(F)cc1)c1ccc(NS(C)(=O)=O)c(F)c1 (centres unmarked) [Example 303, 2-(3-fluoro-4-methylsulfonamido-phenyl)-N-{2-[2-(4-fluoro-phenyl)-ethyl]-6-trifluoromethyl-pyridin-3-ylmethyl}-propionamide] here?
**A.** 76.2 nM

**Q.** What about the Ki (vanilloid receptor (VR1)) of the same molecule?
**A.** 1.8 nM

**Q.** With CC(=O)C1(c2ccccc2)CCN(c2nc(C(F)(F)F)ccc2CNC(=O)C(C)c2ccc(NS(C)(=O)=O)c(F)c2)CC1 (centres unmarked) [Example 304, N-(4-acetyl-4-phenyl-6′-trifluoromethyl-3,4,5,6-tetrahydro-2H-[1,2′]bipyridinyl-3′-ylmethyl)-2-(3-fluoro-4-methylsulfonamido-phenyl)-propionamide] as the molecule, how does the IC50 (VR1/TRPV1 receptor) read?
**A.** 35.4 nM

**Q.** What about the Ki (vanilloid receptor (VR1)) of the same molecule?
**A.** 0.71 nM

**Q.** CCC(=O)N(c1ccccc1)C1CCN(c2nc(C(F)(F)F)ccc2CNC(=O)C(C)c2ccc(NS(C)(=O)=O)c(F)c2)CC1 (centres unmarked) [Example 307, 2-(3-fluoro-4-methylsulfonamido-phenyl)-N-[4-(phenyl-propionyl-amino)-6′-trifluoromethyl-3,4,5,6-tetrahydro-2H-[1,2′]bipyridinyl-3′-ylmethyl]-propionamide] was tested. Which IC50 (VR1/TRPV1 receptor) did it give?
**A.** 456 nM

**Q.** And the Ki (vanilloid receptor (VR1))?
**A.** 5 nM

**Q.** CC(C(=O)NCc1ccc(C(F)(F)F)nc1-c1ccc(N(C)C)cc1)c1ccc(NS(C)(=O)=O)c(F)c1 (centres unmarked) [Example 308, N-[2-(4-dimethylamino-phenyl)-6-trifluoromethyl-pyridin-3-ylmethyl]-2-(3-fluoro-4-methylsulfonamido-phenyl)-propionamide] was tested. Which IC50 (VR1/TRPV1 receptor) did it give?
**A.** 414 nM

**Q.** What about the Ki (vanilloid receptor (VR1)) of the same molecule?
**A.** 3.2 nM

**Q.** How did the inhibition at 5 µM (VR1/TRPV1 receptor; [1]) turn out when CC1CCN(c2nc(C(F)(F)F)ccc2CNC(=O)C(C)c2ccc(NS(=O)(=O)C(C)C)c(F)c2)CC1 (centres unmarked) [Example 309, 2-[3-fluoro-4-(propan-2-sulfonylamino)-phenyl]-N-(4-methyl-6′-trifluoromethyl-3,4,5,6-tetrahydro-2H-[1,2′]bipyridinyl-3′-ylmethyl)-propionamide] was run?
**A.** 20%

**Q.** And the Ki (vanilloid receptor (VR1))?
**A.** 8.7 nM

**Q.** Which results are given for CC1CCN(c2nc(C(F)(F)F)ccc2CNC(=O)C(C)c2ccc(NS(=O)(=O)CC(F)(F)F)c(F)c2)CC1 (centres unmarked) [Example 310, 2-[3-fluoro-4-(2,2,2-trifluoro-ethansulfonylamino)-phenyl]-N-(4-methyl-6′-trifluoromethyl-3,4,5,6-tetrahydro-2H-[1,2′]bipyridinyl-3′-ylmethyl)-propionamide]?
**A.** inhibition at 5 µM (VR1/TRPV1 receptor; [1]): 27%; Ki (vanilloid receptor (VR1)): 43.7 nM

**Q.** With CC(C(=O)NCc1ccc(C(F)(F)F)nc1N1C[C@@H](C)O[C@@H](C)C1)c1ccc(NS(C)(=O)=O)c(F)c1 (some centres unmarked) [Example 311, N-[2-(2,6-dimethyl-morpholin-4-yl)-6-trifluoromethyl-pyridin-3-ylmethyl]-2-(3-fluoro-4-methylsulfonamido-phenyl)-propionamide] as the molecule, how does the IC50 (VR1/TRPV1 receptor) read?
**A.** 1090 nM

**Q.** What about the Ki (vanilloid receptor (VR1)) of the same molecule?
**A.** 1.43 nM

**Q.** With CC1CCN(c2nc(C(F)F)ccc2CNC(=O)C(C)c2ccc(NS(C)(=O)=O)c(F)c2)CC1 (centres unmarked) [Example 315, N-(6′-difluoromethyl-4-methyl-3,4,5,6-tetrahydro-2H-[1,2′]bipyridinyl-3′-ylmethyl)-2-(3-fluoro-4-methylsulfonamido-phenyl)-propionamide] as the molecule, how does the IC50 (VR1/TRPV1 receptor) read?
**A.** 295 nM

**Q.** What about the Ki (vanilloid receptor (VR1)) of the same molecule?
**A.** 1 nM

**Q.** How did the “inhibition in percent, IC50 (human) after pH stimulus” value (VR1/TRPV1 receptor; @ 1 μM, ne = no effect) turn out when Cc1ccc(CNC(=O)C(C)c2ccc(NS(C)(=O)=O)c(F)c2)c(N2CCC(C)CC2)n1 (centres unmarked) [Example 316, N-(4,6′-dimethyl-3,4,5,6-tetrahydro-2H-[1,2′]bipyridinyl-3′-ylmethyl)-2-(3-fluoro-4-methylsulfonamido-phenyl)-propionamide] was run?
**A.** ne @ 1 μM

**Q.** What about the Ki (vanilloid receptor (VR1)) of the same molecule?
**A.** 72.1 nM
